Results taken from patent publication US7396837B2, “Antitumoral analogs of lamellarins” (Pharma Mar, S.A.U., priority 2002, dated 2008).
Like-named read-outs stand apart in the source and are kept apart here.

Experiments:
Type in all cases: cell-based
[1] = system: SK-BR-3; test: SRB colorimetric cell growth inhibition assay, SK-BR-3; settings: Homo sapiens; for CC50: cell killing (cytotoxic effect), read-out: LC50 SK-BR-3; for GI50: GI=growth inhibition, read-out: GI50 SK-BR-3; for IC (TGI): total growth inhibition (cytostatic effect), read-out: TGI SK-BR-3
Summary of the method: (§1)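 Human tumour cells continuously exposed to compound in 96-well culture; growth and viability quantified colorimetrically by sulforhodamine B staining. Mean ± SD from triplicate wells; GI (growth inhibition), TGI (total growth inhibition, cytostatic) and LC (cell killing, cytotoxic) parameters derived.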

[2] = system: HeLa; test: SRB colorimetric cell growth inhibition assay, HeLa; settings: Homo sapiens, HeLa; for GI50: read-out: GI50 HELA; for CC50: read-out: LC50 HELA; for IC (TGI): read-out: TGI HELA
Summary of the method: as §1

[3] = system: LoVo-Dox; test: SRB colorimetric cell growth inhibition assay, LoVo-Dox (MDR); settings: Homo sapiens, LOVO-DOX; for GI50: GI=growth inhibition, read-out: GI50 LOVO-DOX; for CC50: cell killing (cytotoxic effect), read-out: LC50 LOVO-DOX; for IC (TGI): total growth inhibition (cytostatic effect), read-out: TGI LOVO-DOX
Summary of the method: as §1

[4] = system: PANC-1; test: SRB colorimetric cell growth inhibition assay, PANC-1; settings: Homo sapiens; for CC50: cell killing (cytotoxic effect), read-out: LC50 PANC-1; for IC (TGI): total growth inhibition (cytostatic effect), read-out: TGI PANC-1; for GI50: GI=growth inhibition, read-out: GI50 PANC-1
Summary of the method: as §1

[5] = system: IGROV; test: SRB colorimetric cell growth inhibition assay, IGROV
Summary of the method: as §1

[6] = system: HeLa-APL; test: SRB colorimetric cell growth inhibition assay, HeLa-APL (aplidine resistant); settings: Homo sapiens; for GI50: read-out: GI50 HELA-APL; for CC50: read-out: LC50 HELA-APL; for IC (TGI): read-out: TGI HELA-APL
Summary of the method: as §1

[7] = system: A-549; test: SRB colorimetric cell growth inhibition assay, A-549; settings: Homo sapiens, A549, A-549; for GI50: GI=growth inhibition, read-out: GI50 A-549; for CC50: cell killing (cytotoxic effect), read-out: LC50 A-549; for IC (TGI): total growth inhibition (cytostatic effect), read-out: TGI A-549
Summary of the method: as §1

[8] = system: LNCaP; test: SRB colorimetric cell growth inhibition assay, LNCaP; settings: Homo sapiens, LNCaP, LN-caP; for GI50: GI=growth inhibition, read-out: GI50 LN-caP; for CC50: cell killing (cytotoxic effect), read-out: LC50 LN-caP; for IC (TGI): total growth inhibition (cytostatic effect), read-out: TGI LN-caP
Excerpt: (§2) The finality of these assays is to interrupt the growth of an “in vitro” tumor cell culture by means a continued exhibition of the cells to the sample to be testing.
(§3) A colorimetric type of assay, using sulforhodamine B (SRB) reaction has been adapted for a quantitative measurement of cell growth and viability (following the technique described by P. A. Skehan, et al., J. Natl. Cancer Inst. 1990, 82, 1107-1112).
(§4) This form of assay employs 96 well cell culture microplates of 9 mm diameter (T. Mosmann et al., J. of Immunological Methods 1983, 65, 55-63; G. T. Faircloth et al., J. of Tissue and Culture Methods 1988, 11, 201-205).
(§5) Most of the cell lines are obtained from American Type Culture Collection (ATCC) derived from different human cancer types.
(§6) The values for mean +/− SD of data from triplicate wells are calculated. Some parameters for cellular responses can be calculated: GI=growth inhibition, TGI=total growth inhibition (cytostatic effect) and LC=cell killing (cytotoxic effect).

[9] = system: HT-29; test: SRB colorimetric cell growth inhibition assay, HT-29; settings: Homo sapiens; for CC50: cell killing (cytotoxic effect), read-out: LC50 HT-29; for GI50: GI=growth inhibition, read-out: GI50 HT-29; for IC (TGI): total growth inhibition (cytostatic effect), read-out: TGI HT-29
Summary of the method: as §1

[10] = system: LoVo; test: SRB colorimetric cell growth inhibition assay, LoVo; settings: Homo sapiens; for CC50: cell killing (cytotoxic effect), read-out: LC50 LOVO; for GI50: GI=growth inhibition, read-out: GI50 LOVO; for IC (TGI): total growth inhibition (cytostatic effect), read-out: TGI LOVO
Summary of the method: as §1

[11] = system: SK-MEL-28; test: SRB colorimetric cell growth inhibition assay, SK-MEL-28; settings: Homo sapiens, SK-MEL-28, MEL-28; for GI50: GI=growth inhibition, read-out: GI50 MEL-28; for CC50: cell killing (cytotoxic effect), read-out: LC50 MEL-28; for IC (TGI): total growth inhibition (cytostatic effect), read-out: TGI MEL-28
Excerpt: as §2, §3, §4, §5, §6

[12] = system: IGROV-ET; test: SRB colorimetric cell growth inhibition assay, IGROV-ET (ET-743 resistant); settings: Homo sapiens, IGROV-ET; for GI50: GI=growth inhibition, read-out: GI50 IGROV-ET; for CC50: cell killing (cytotoxic effect), read-out: LC50 IGROV-ET; for IC (TGI): total growth inhibition (cytostatic effect), read-out: TGI IGROV-ET
Summary of the method: as §1

[13] = system: DU-145; test: SRB colorimetric cell growth inhibition assay, DU-145; settings: Homo sapiens; for CC50: cell killing (cytotoxic effect), read-out: LC50 DU-145; for GI50: GI=growth inhibition, read-out: GI50 DU-145; for IC (TGI): total growth inhibition (cytostatic effect), read-out: TGI DU-145
Summary of the method: as §1

[14] = Homo sapiens, IGROV; cell killing (cytotoxic effect); read-out: LC50 IGROV

Compound	CC50 ([1]; SK-BR-3, SK-BR-3)	GI50 [3]	CC50 [3]	IC (TGI) [3]	CC50 ([4]; PANC-1, PANC-1)	IC (TGI) ([4]; PANC-1, PANC-1)	CC50 [5, 14]	GI50 [7]	CC50 [7]	IC (TGI) [7]	GI50 [8]	CC50 [8]	IC (TGI) [8]	CC50 ([9]; HT-29, HT-29)	CC50 ([10]; LoVo)	GI50 [11]	CC50 [11]	IC (TGI) [11]	GI50 [12]	CC50 [12]	further results
CC[C@H](C)[C@H](NC(=O)OC(C)(C)C)C(=O)Oc1ccc(-c2c3c4cc(OC)c(OC(=O)[C@@H](NC(=O)OC(C)(C)C)[C@@H](C)CC)cc4oc(=O)c3n3ccc4cc(OC(=O)[C@@H](NC(=O)OC(C)(C)C)[C@@H](C)CC)c(OC)cc4c23)cc1OC [Compound 208]	8780 nM	8780 nM	8780 nM	8780 nM	8780 nM	8780 nM	8780 nM	8780 nM	8780 nM	8780 nM	1460 nM	5830 nM	2910 nM	8780 nM	8780 nM	8780 nM	8780 nM	8780 nM	8780 nM	8780 nM	GI50 ([1]; SK-BR-3): 5010 nM; IC (TGI) ([1]; SK-BR-3): 7970 nM; GI50 [2]: 208 nM; CC50 [2]: 2310 nM; IC (TGI) [2]: 618 nM; GI50 ([4]; PANC-1): 5920 nM; GI50 ([5]; Homo sapiens; IGROV; GI=growth inhibition; read-out: GI50 IGROV): 8780 nM; IC (TGI) ([5]; Homo sapiens; IGROV; total growth inhibition (cytostatic effect); read-out: TGI IGROV): 8780 nM; GI50 [6]: 154 nM; CC50 [6]: 1140 nM; IC (TGI) [6]: 385 nM; GI50 ([9]; HT-29): 8780 nM; IC (TGI) ([9]; HT-29): 8780 nM; GI50 ([10]; LOVO): 8780 nM; IC (TGI) ([10]; LOVO): 8780 nM; IC (TGI) [12]: 8780 nM; CC50 ([13]; DU-145, DU-145): 8780 nM; GI50 ([13]; DU-145): 8780 nM; IC (TGI) ([13]; DU-145): 8780 nM
CC[C@H](C)[C@H](N)C(=O)Oc1ccc(-c2c3c4cc(OC)c(OC(=O)[C@@H](N)[C@@H](C)CC)cc4oc(=O)c3n3ccc4cc(OC(=O)[C@@H](N)[C@@H](C)CC)c(OC)cc4c23)cc1OC [Compound 209]	101 nM	137 nM	2600 nM	488 nM	1030 nM	282 nM	477 nM	42.8 nM	713 nM	195 nM	15.8 nM	233 nM	56 nM	10500 nM	527 nM	32.8 nM	480 nM	83.9 nM	31.7 nM	345 nM	GI50 ([1]; SK-BR-3, SK-BR-3): 47.8 nM; IC (TGI) ([1]; SK-BR-3, SK-BR-3): 69.5 nM; GI50 ([2]; GI=growth inhibition): 66.2 nM; CC50 ([2]; cell killing (cytotoxic effect)): 1010 nM; IC (TGI) ([2]; total growth inhibition (cytostatic effect)): 269 nM; GI50 ([4]; PANC-1, PANC-1): 67.4 nM; GI50 ([5]; Homo sapiens, IGROV; GI=growth inhibition; read-out: GI50 IGROV): 33.7 nM; IC (TGI) ([5]; Homo sapiens, IGROV; total growth inhibition (cytostatic effect); read-out: TGI IGROV): 124 nM; GI50 ([6]; HELA-APL, GI=growth inhibition): 82.7 nM; CC50 ([6]; HELA-APL, cell killing (cytotoxic effect)): 517 nM; IC (TGI) ([6]; HELA-APL, total growth inhibition (cytostatic effect)): 221 nM; GI50 ([9]; HT-29, HT-29): 3380 nM; IC (TGI) ([9]; HT-29, HT-29): 9990 nM; GI50 ([10]; LoVo): 119 nM; IC (TGI) ([10]; LoVo): 251 nM; IC (TGI) [12]: 70.1 nM; GI50 ([13]; DU-145, DU-145): 4.29 nM; CC50 ([13]; DU-145, DU-145): 40.4 nM; IC (TGI) ([13]; DU-145, DU-145): 11.9 nM
